Experimental data as given in ChEMBL document CHEMBL2016517, “3D Pharmacophore Model-Assisted Discovery of Novel CDC7 Inhibitors” (ACS Med Chem Lett, 2011).

Each compound was assayed against CDC7/DBF4 (Cell division cycle 7-related protein kinase/Activator of S phase kinase) (Homo sapiens, UniProt O00311) (assay: Inhibition of CDC7/DBF4 using MCM-2 as substrate after 1 hr).
Format: protein-complex assay

Sequence of CDC7/DBF4 (Cell division cycle 7-related protein kinase/Activator of S phase kinase) (Q9UBU7 whole entry): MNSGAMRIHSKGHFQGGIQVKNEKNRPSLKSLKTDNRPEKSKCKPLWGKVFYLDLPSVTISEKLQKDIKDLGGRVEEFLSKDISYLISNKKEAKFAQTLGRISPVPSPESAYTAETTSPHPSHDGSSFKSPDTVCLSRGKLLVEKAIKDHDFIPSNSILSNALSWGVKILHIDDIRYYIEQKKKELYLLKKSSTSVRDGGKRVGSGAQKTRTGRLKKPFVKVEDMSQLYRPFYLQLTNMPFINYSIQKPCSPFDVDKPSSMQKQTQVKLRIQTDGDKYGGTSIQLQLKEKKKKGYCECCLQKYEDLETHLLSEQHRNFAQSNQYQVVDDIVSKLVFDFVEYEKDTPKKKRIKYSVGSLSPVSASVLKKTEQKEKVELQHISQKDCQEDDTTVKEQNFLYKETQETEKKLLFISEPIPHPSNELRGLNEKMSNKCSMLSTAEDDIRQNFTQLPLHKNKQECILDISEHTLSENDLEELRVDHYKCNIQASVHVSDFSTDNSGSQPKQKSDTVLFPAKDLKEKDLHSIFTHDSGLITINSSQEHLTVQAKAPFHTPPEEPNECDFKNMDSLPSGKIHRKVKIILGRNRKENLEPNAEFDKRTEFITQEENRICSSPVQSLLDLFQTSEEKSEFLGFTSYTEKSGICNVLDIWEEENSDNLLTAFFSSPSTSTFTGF
Sequence of CDC7/DBF4 (Cell division cycle 7-related protein kinase/Activator of S phase kinase) (O00311 whole entry): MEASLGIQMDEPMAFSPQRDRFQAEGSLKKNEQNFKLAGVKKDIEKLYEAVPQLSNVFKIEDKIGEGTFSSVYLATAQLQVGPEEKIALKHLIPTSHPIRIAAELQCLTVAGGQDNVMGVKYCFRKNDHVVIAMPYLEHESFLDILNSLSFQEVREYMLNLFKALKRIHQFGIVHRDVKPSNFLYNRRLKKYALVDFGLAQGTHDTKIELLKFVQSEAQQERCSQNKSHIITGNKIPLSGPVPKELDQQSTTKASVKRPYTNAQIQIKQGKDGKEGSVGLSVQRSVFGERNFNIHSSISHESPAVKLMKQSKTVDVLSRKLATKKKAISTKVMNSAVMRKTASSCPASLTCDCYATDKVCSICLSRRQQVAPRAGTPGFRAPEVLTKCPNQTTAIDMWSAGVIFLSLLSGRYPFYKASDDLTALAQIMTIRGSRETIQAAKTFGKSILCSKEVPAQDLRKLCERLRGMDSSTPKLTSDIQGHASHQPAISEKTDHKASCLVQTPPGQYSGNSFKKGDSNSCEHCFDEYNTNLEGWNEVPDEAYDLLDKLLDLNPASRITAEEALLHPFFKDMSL

SMILES	IC50 [nM]
O=C1CCC2(CCCCC2)c2sc(-c3ccncc3)cc21	9
O=C1NCC2(CCCCC2)c2sc(-c3cccnc3)cc21	5100
Cn1cc(-c2cc3c(s2)C2(CCCCC2)CNC3=O)cn1	> 25000
O=C1NCC2(CCCCC2)c2sc(Cl)cc21	> 25000
CNC(=O)c1cc(-c2cc3c(s2)C2(CCCCC2)CNC3=O)ccn1	> 25000
Nc1cc(-c2cc3c(s2)C2(CCCCC2)CCC3=O)ccn1	33
CC(=O)Nc1cc(-c2cc3c(s2)C2(CCCCC2)CNC3=O)ccn1	41
O=C1NCCc2sc(-c3ccncc3)cc21	33
CC(=O)Nc1cccc(-c2cc3c(s2)C2(CCCCC2)CNC3=O)c1	> 25000
O=C1NCC2(CCCCC2)c2sc(-c3cc[nH]n3)cc21	370

Stronger by IC50, values ahead:

IC50 [nM]	SMILES
8	Nc1cc(-c2cc3c(s2)C2(CCCCC2)CNC3=O)ccn1
< 1	O=C1NCC2(CCCCC2)c2sc(-c3ccncc3)cc21
1	O=C1CCC2(CCCCC2)c2sc(-c3cn[nH]c3)cc21
1	O=C1NCC2(CCCCC2)c2sc(-c3cn[nH]c3)cc21
1	O=C1NCC2(CCCCC2)c2sc(-c3ncnc4[nH]cnc34)cc21
